# Measured values from patent US6825230B2, “Spiro and dispiro 1,2,4-trixolane antimalarials” (Medicines for Malaria Venture MMV, priority 2002, dated 2004).
# Read-outs that look alike come from different tables or passages of the source.
# Legend:
# [1] = test system: chloroquine-sensitive NF54 strain of P. falciparum; assay: In vitro antimalarial semiautomated microdilution assay ([3H]-hypoxanthine incorporation), NF54 strain; assay type: cell-based, Plasmodium falciparum; conditions: Plasmodium falciparum
# Procedure: (§1) Various OZ compounds were tested by the semiautomated microdilution assay against intraerythrocytic forms of Plasmodium falciparum derived from asynchronous stock cultures.
# (§2) Fifty percent inhibitory concentration (IC50) were estimated by Logit regression analysis.
# [2] = test system: chloroquine-resistant K1 strain of P. falciparum; assay: In vitro antimalarial semiautomated microdilution assay ([3H]-hypoxanthine incorporation), K1 strain; assay type: cell-based, Plasmodium falciparum; conditions: Plasmodium falciparum
# Procedure: as §1, §2
# [3] = test system: ANKA strain of P. berghei; assay: Single dose STI in vivo screen in infected mice; set-up: species or system Plasmodium berghei; conditions: for Survival (days) 10 mg/kg po: single 10 mg/kg po in 3% ethanol and 7% Tween 80; for Survival (days) 10 mg/kg po / Survival (days) 10 mg/kg SSV po / Survival (days) 10 mg/kg sc: untreated 6-7 days; for Activity (%) 10 mg/kg po: single 10 mg/kg po in 3% ethanol and 7% Tween 80 on day 1 post-infection; for Activity (%) 10 mg/kg po / Activity (%) 10 mg/kg SSV po / Activity (%) 10 mg/kg sc / Activity (%) 3 mg/kg SSV po: percent reduction in parasitemia on day 3; for Survival (days) 10 mg/kg SSV po: single 10 mg/kg po in SSV; for Activity (%) 10 mg/kg SSV po: single 10 mg/kg po in standard suspending vehicle (SSV) on day 1 post-infection; for Survival (days) 10 mg/kg sc: single 10 mg/kg sc in 3% ethanol and 7% Tween 80; for Activity (%) 10 mg/kg sc: single 10 mg/kg sc in 3% ethanol and 7% Tween 80 on day 1 post-infection; for Survival (days) 3 mg/kg SSV po / Activity (%) 3 mg/kg SSV po: single 3 mg/kg po in SSV
# Procedure: In the single dose STI in vivo screen, Moro SPF or NMRI mice infected with the ANKA strain of P. berghei (groups of three mice) were treated on day one post-infection with trioxolanes dissolved or suspended in 3% ethanol and 7% Tween 80. […] SSV consists of 0.5% w/v CMC, 0.5% v/v benzyl alcohol, 0.4% v/v Tween 80, and 0.9% w/v sodium chloride in water. Antimalarial activity was measured by percent reduction in parasitemia on day three post-infection and survival times compared to an untreated control group. Survival to day 30 post-infection is considered to be a cure. […] Other factors influencing antimalarial activity include the stability of carbon radicals formed by β-scission subsequent to the initial electron transfer to the peroxide bond and the influence of steric effects remote from the peroxide bond on the interactions between carbon radicals and potential drug targets.
# Moro NMRI male mice (Fu Albino specific pathogen free) weighing 18±2 g were infected intravenously (i.v.) with 2×10^7 P. berghei ANKA strain-infected erythrocytes from donor mice on day 0 of the experiment. From donor mice with circa 30% parasitemia, heparinized blood was taken and diluted in physiological saline to 10^8 parasitized erythrocytes per ml. An aliquot (0.2 ml) of this suspension was injected i.v. into experimental and control groups of mice. […] Throughout the experiments, mice were kept in groups of three or five animals in Makrolon type II cages in an air-conditioned animal room at 22 to 23° C.
# They were administered per os (p.o.) in a total volume of 0.01 ml per gram of mouse. The activity of the compound was determined by a variety of methods outlined in subsequent sections. Survival time was also recorded, and survival to day 30 post-infection was considered to be a cure.
# [4] = NF54, 72 h, read-out: IC50 (ng/ml) NF54, chloroquine-sensitive NF54 strain, 72 h incubation
# [5] = K1, 72 h, read-out: IC50 (ng/ml) K1, chloroquine-resistant K1 strain, 72 h incubation
# [6] = chloroquine-sensitive NF54 strain, 72 h incubation, read-out: IC50 (ng/ml) NF54
# [7] = chloroquine-resistant K1 strain, 72 h incubation, read-out: IC50 (ng/ml) K1
Compound,"IC50 [1, 4]","IC50 [2, 5]",Survival (days) 10 mg/kg po [3],Activity (%) 10 mg/kg po [3],Survival (days) 10 mg/kg SSV po [3],Activity (%) 10 mg/kg SSV po [3],Survival (days) 10 mg/kg sc [3],Activity (%) 10 mg/kg sc [3],"IC50 [1, 6]","IC50 [2, 7]",Survival (days) 3 mg/kg SSV po [3],Activity (%) 3 mg/kg SSV po [3]
"O=C(O)c1ccccc1C(=O)N1CCC2(CC1)OOC1(O2)C2CC3CC(C2)CC1C3 (stereo not drawn) [OZ132, Adamantane-2-spiro-3′-8′-(2′-carboxybenzoyl)-1′,2′,4′-trioxa-8′-azaspiro[4.5]decane]",> 10 ng/mL,9.8 ng/mL,6.3 days,38%,5.7 days,0%,6.3 days,40%,,,,
COCC(=O)N(C1CCCCC1)C1CCC2(CC1)OOC1(O2)C2CC3CC(C2)CC1C3 (stereo not drawn) [OZ174],34 ng/mL,27 ng/mL,6.7 days,0%,7.3 days,15%,10.3 days,90%,,,,
O=C(NC[C@H]1CC[C@]2(CC1)OOC1(O2)C2CC3CC(C2)CC1C3)c1cc[n+]([O-])cc1 (stereo partly drawn) [OZ264],,,11.0 days,99.61%,10.3 days,99.92%,13.7 days,99.97%,1.5 ng/mL,1.2 ng/mL,,
FC1(c2ccccc2)CCC2(CC1)OOC1(O2)C2CC3CC(C2)CC1C3 (stereo not drawn) [OZ274],5.7 ng/mL,5.1 ng/mL,,,7.0/ND days,11/ND %,,,,,,
O=C(NCCO)[C@H]1CC[C@]2(CC1)OOC1(O2)C2CC3CC(C2)CC1C3 (stereo partly drawn) [OZ155],> 10 ng/mL,12 ng/mL,6.3 days,53%,7.0 days,53%,8.3 days,73%,,,,
NC(=O)CCNC[C@H]1CC[C@]2(CC1)OO[C@]1(O2)C2CC3CC(C2)CC1C3 [OZ319],0.91 ng/mL,0.41 ng/mL,,,,,,,,,,
CC(C)(C)CC(=O)N[C@H]1CC[C@]2(CC1)OOC1(O2)C2CC3CC(C2)CC1C3 (stereo partly drawn) [OZ195],3.7 ng/mL,2.2 ng/mL,,,,,,,,,,
NCC[C@H]1CC[C@]2(CC1)OOC1(O2)C2CC3CC(C2)CC1C3 (stereo partly drawn) [OZ229],0.23 ng/mL,0.24 ng/mL,,,,,,,,,,
N[C@H]1CC[C@]2(CC1)OOC1(O2)C2CC3CC(C2)CC1C3 (stereo partly drawn) [OZ137],18 ng/mL,,5.7 days,0%,6.3 days,6%,7.0 days,61%,,,,
O=C(NC[C@H]1CC[C@]2(CC1)OO[C@]1(O2)C2CC3CC(C2)CC1C3)c1cccnc1 [OZ273],,,,,11.7 days,99.58%,,,,0.97 ng/mL,7.2 days,64%
CCOC(=O)NC[C@H]1CC[C@]2(CC1)OO[C@]1(O2)C2CC3CC(C2)CC1C3 [OZ289],,,,,13.4 days,99.94%,,,0.56 ng/mL,,7.4 days,92%
O=CNCC(=O)NC[C@H]1CC[C@]2(CC1)OO[C@]1(O2)C2CC3CC(C2)CC1C3 [OZ322],,,,,10.0 days,98%,,,,0.9 ng/mL,9.4 days,61%
"CC(C)N(C(=O)N1CCC2(CC1)OOC1(O2)C2CC3CC(C2)CC1C3)C(C)C (stereo not drawn) [OZ194, Adamantane-2-spiro-3′-8′-[(diisopropylamino)carbonyl]-1′,2′,4′-trioxa-8′-azaspiro[4.5]decane]",6.6 ng/mL,,8.3 days,87%,8.0 days,73%,20.3 days,99.95%,,,,
NC(=O)[C@@H]1CCCN1C[C@H]1CC[C@]2(CC1)OO[C@]1(O2)C2CC3CC(C2)CC1C3 [OZ327],,,,,9.8 days,97%,,,,,7.0 days,72%
Cn1nnnc1SC[C@H]1CC[C@]2(CC1)OO[C@]1(O2)C2CC3CC(C2)CC1C3 [OZ331],,,,,9.0 days,,,,,,7.0 days,66%
Cn1ccnc1S(=O)(=O)C[C@H]1CC[C@]2(CC1)OO[C@]1(O2)C2CC3CC(C2)CC1C3 [OZ310],,,,,7.8 days,81%,,,,,8.2 days,38%
NC(=O)c1cncn1C[C@H]1CC[C@]2(CC1)OO[C@]1(O2)C2CC3CC(C2)CC1C3 [OZ321],,,,,14.0 days,,,,,,9.8 days,64%
C1CCC(NC2CCC3(CC2)OOC2(O3)C3CC4CC(C3)CC2C4)CC1 (stereo not drawn) [OZ162],0.71 ng/mL,0.5 ng/mL,,,,,,,,,,
NCCC(=O)NC[C@H]1CC[C@]2(CC1)OO[C@]1(O2)C2CC3CC(C2)CC1C3 [OZ336],,,,,9.2 days,,,,,,9.6 days,98%
"CN(C)C(=O)N1CCC2(CC1)OOC1(O2)C2CC3CC(C2)CC1C3 (stereo not drawn) [OZ133, Adamantane-2-spiro-3′-8′-[(dimethylamino)carbonyl]-1′,2′,4′-trioxa-8′-azaspiro[4.5]decane]",,0.7 ng/mL,7.0 days,94%,7.3 days,97%,7.0 days,72%,,,,
O=CN1CCN(C[C@H]2CC[C@]3(CC2)OO[C@]2(O3)C3CC4CC(C3)CC2C4)CC1 [OZ303],,,,,8.6 days,,,,,,7.6 days,69%
"O=C(N1CCOCC1)N1CCC2(CC1)OOC1(O2)C2CC3CC(C2)CC1C3 (stereo not drawn) [OZ188, Adamantane-2-spiro-3′-8′-(4′-morpholinylcarbonyl)-1′,2′,4′-trioxa-8′-azaspiro[4.5]decane]",,,8.7 days,93%,10.0 days,98%,9.0 days,99.87%,,,,
c1cnc(NC[C@H]2CC[C@]3(CC2)OO[C@]2(O3)C3CC4CC(C3)CC2C4)nc1 [OZ326],,,,,7.4 days,80%,,,,,6.0 days,7%
O=C(NC[C@H]1CC[C@]2(CC1)OO[C@]1(O2)C2CC3CC(C2)CC1C3)[C@@H]1CCCN1 [OZ337],,,,,8.6 days,,,,,,,97%
O=C(C[C@H]1CC[C@]2(CC1)OO[C@]1(O2)C2CC3CC(C2)CC1C3)N1CCN(c2ncccn2)CC1 [OZ314],,,,,6.6/6.6 days,13%,,,,,6.6/6.6 days,11%
Cn1nnnc1S(=O)(=O)C[C@H]1CC[C@]2(CC1)OO[C@]1(O2)C2CC3CC(C2)CC1C3 [OZ332],,,,,6.0/6.0 days,8%,,,,,6.0/6.0 days,0%
O=C1CCC(=O)N1C[C@H]1CC[C@]2(CC1)OOC1(O2)C2CC3CC(C2)CC1C3 (stereo partly drawn) [OZ197],2 ng/mL,1 ng/mL,,,,,,,,,,
O=C(NC[C@H]1CC[C@]2(CC1)OO[C@]1(O2)C2CC3CC(C2)CC1C3)c1ccccn1 [OZ304],,,,,8.2 days,98%,,,,,8.8 days,61%
